Assay results as given in article PMC10817170, “Effect of an NHE3 inhibitor in combination with an NPT2b inhibitor on gastrointestinal phosphate absorption in Rodent models” (PLOS ONE, 2024).
Values joined by “and” are separate entries in the source; they are usually repeats but may differ in a detail not shown here. Equal entries are not always repeated.

Tests used:
[1] = tested on: acute phosphate uptake into plasma; design: method as in PMID 35194979; settings: rats; cited from earlier work
[2] = tested on: acute phosphate uptake into plasma; experiment: Acute phosphate uptake in rats, LY3304000 with fixed 1.2 mg/kg LY3358966; assay type: in vivo; settings: 1.2 mg/kg LY3358966 alone
Description: NHE3 inhibitor LY3304000 and NPT2b inhibitor LY3358966 SDD were used in combination to assess their effect on phosphate absorption in rats. To make the LY3358966 dosing solution, an appropriate amount of LY3358966 SDD was weighed for a 1.2 mg/kg API dosing solution with 10 mL/kg dosing volume and dissolved in water. To make the LY3304000 dosing solution, an appropriate amount of LY3304000 was weighed for a 10 mg/kg dose with 10 mL/kg dosing volume and dissolved in 1% HEC vehicle. The subsequent dosing solutions for 3, 1, 0.3, 0.1, 0.03, 0.01, 0.003, and 0.001 mg/kg LY3304000 were prepared by serial dilutions with 1% HEC. Following 12-hour fasting, male SD rats were orally dosed at 10 mL/kg with 1% HEC vehicle, 1.2 mg/kg LY3358966 or increasing doses of LY3304000 with a fixed, 1.2 mg/kg dose of LY3358966. In the vehicle group, the animals were dosed first with 1% HEC immediately followed by water. In the LY3358966 alone group, the animals were first dosed with 1% HEC immediately followed by LY3358966. In the combination groups, the animals were dosed first with LY3304000 immediately followed by LY3358966. Fifteen minutes later, 2 mL Radiolabeled Phosphate Dosing Solution was orally dosed. Fifteen minutes later, blood was collected by cardiac stick, and plasma was prepared. Radioactivity (dpm) in 50-μL plasma was measured by scintillation counting. To measure the total radioactivity dosed to each rat, the radioactivity in two 10-μL samples of the Radiolabeled Phosphate Dosing Solutions was measured by scintillation counting. The mole amount of phosphate uptake was calculated as described above to determine acute phosphate uptake.

[3] = tested on: acute phosphate uptake into plasma; design: method as in PMID 35194979; settings: mice; cited from earlier work
[4] = tested on: intestinal phosphate absorption; experiment: Phosphate absorption in rats: 33P in plasma (15 min) and recovered in gastrointestinal tract (4 h), single agents and combination; assay type: in vivo; settings: 0.4 mg/kg LY3304000, 10 mg/kg LY3358966 or both
Description: We also evaluated the effect of LY3304000 and LY3358966 in combination on phosphate absorption in rats by measuring radioactive phosphate recovered in either plasma or the gastrointestinal (GI) tract. In this combination study, two vehicles were used. One is 1% HEC vehicle for making LY3304000 dosing solution, another is 0.46% PVP-VA vehicle contained in LY3358966 SDD. To make the LY3358966 dosing solution, an appropriate amount of LY3358966-SDD was weighed for a 10 mg/kg API dosing solution with 5 mL/kg dosing volume and dissolved in water. To make the LY3304000 dosing solution, an appropriate amount of LY3304000 was weighed for a 0.4 mg/kg dosing solution with 5 mL/kg dosing volume and dissolved in 1% HEC. The Radiolabeled Phosphate Dosing Solutions was made as described above. Following 4-hour fasting with access to water, male SD rats were orally dosed at 10 mL/kg with either two vehicles, an LY3358966 dosing solution and 1% HEC vehicle, an LY3304000 dosing solution and 0.46% PVP-VA vehicle, or an LY3304000 and LY3358966 dosing solutions, combined 1:1 by volume. Fifteen minutes later, Radiolabeled Phosphate Dosing Solution was orally dosed in a 2 mL volume. Fifteen minutes after the radiolabeled phosphate dose, blood was collected by retro orbital bleeding, and plasma was prepared. Radioactivity (dpm) in 20-μL plasma was measured by scintillation counting. The mole amount of phosphate uptake in the plasma was calculated as described above. Four hours post radioactive phosphate dose, the animals were sacrificed by asphyxiation with CO2 followed by cervical dislocation and then the stomach, small intestine, large intestine, and feces were collected and weighed. The tissues and feces were digested in 20 mL or 10 mL of 1 N NaOH, respectively, overnight at 37°C. A 100 μL sample of the homogenates were dispensed into scintillation vials and mixed with 10 mL of Optiphase Supermax scintillation fluid (PerkinElmer), and radioactivity (dpm) was measured by scintillation counting. Very little radioactivity was detected in the feces at 4 hours post radioactive phosphate dose. The percentage of radiolabeled phosphate recovered in the gastrointestinal tissue was defined as radioactivity (dpm) recovered in each fraction compared to the amount of radioactivity (dpm) administered. The mole amount of phosphate uptake into plasma in vehicle and LY3358966 and LY3304000 alone groups were compared to the LY3358966 and LY3304000 combination group using One-way ANOVA with Dunnett’s multiple comparisons. Percent recovery of ^33P phosphate in the rat gastrointestinal tract was analyzed by two-way analysis of variance (ANOVA) in JMP 12.1 to test for additivity of the effects of LY3304000 and LY3358966 on inhibiting phosphate absorption.

phosphate absorption = tested on: phosphate absorption; design: method as in PMID 30158152; settings: cited from earlier work
[5] = tested on: acute phosphate uptake into plasma; design: method as in PMID 34978760; settings: cited from earlier work

Compound	inhibition of acute phosphate uptake [1]	phosphate uptake, % of the vehicle control [2] [%]	phosphate uptake into plasma ([2]; vehicle 710 nmoles) [nmol]	decrease of acute uptake of radiolabeled phosphate into plasma [3]	phosphate uptake into plasma ([4]; 15 min post 33P phosphate, vehicle 166, mean ± SEM, n=8) [nmol]	inhibition of phosphate uptake into plasma ([4]; 15 min post 33P phosphate, versus vehicle) [%]	percentage of radiolabeled phosphate recovered, Feces ([4]; 4 h) [%]	percentage of radiolabeled phosphate recovered, Large Intestine ([4]; 4 h)	percentage of radiolabeled phosphate recovered, Small Intestine ([4]; 4 h)	percentage of radiolabeled phosphate recovered, Stomach ([4]; 4 h)	percentage of 33P recovered in GI tract, total ([4]; 4 h post 33P phosphate, stomach, small intestine, large intestine and feces, vehicle 25%)	effect on phosphate absorption (phosphate absorption)	effect on plasma 33P-phosphate in NHE3 knockout mice ([5]; 60 minutes after dosing 33P-phosphate)	33P-phosphate levels in plasma, lower than vehicle ([5]; mice, 5 minutes post phosphate dose)	33P-phosphate levels in plasma, elevated versus vehicle ([5]; mice, 60 min post phosphate dose)
CC1(C)CN(C(=O)NCCCCO)CCN1Cc1cccc(C(=O)Nc2sc3c(c2C(=O)Nc2cc(F)c(CCc4ccc(C(=O)O)cc4)c(F)c2)CCCC3)c1 [LY3358966]	20–30%	71	504	over 70%	108	35	<0.1	18.43 +/- 2.03%	8.98 +/- 0.48%	4.86 +/- 1.13%	32 ± 1% and 32% and 32.27 +/- 1.38%	–	–	–	–
CN1Cc2c(Cl)cc(Cl)cc2[C@H](c2cccc(S(=O)(=O)NCCOCCOCCNC(=O)NCCCCNC(=O)NCCOCCOCCNS(=O)(=O)c3cccc([C@@H]4CN(C)Cc5c(Cl)cc(Cl)cc54)c3)c2)C1 [tenapanor]	–	–	–	–	–	–	–	–	–	–	–	little effect	no effect	about 67%	about 50%
